Source: patent publication US6211168A, “Methods for preparation and use of 1α,24 (S)-dihydroxy vitamin D2” (Bone Care International, Inc, priority 1995, dated 2001)

What was measured:
[1] = tested on: healthy postmenopausal women; assay: prophylaxis of postmenopausal bone loss; format: in vivo, human; details: at or above 1.0 μg/day
Description: A clinical study is conducted with healthy postmenopausal women having ages between 55 and 60 years. The study involves up to 80 patients randomly divided into two treatment groups, and continues for 24 to 36 months. One treatment group receives a constant dosage of 1α,24(S)-dihydroxy vitamin D2 (u.i.d.; a dose level at or above 1.0 μg/day) and the other receives a matching placebo. The study is conducted as indicated in Example 2 above.

[2] = tested on: dermatitis (contact and ectopic) patients; assay: dermatological testing, topical treatment of dermatitis; format: in vivo, human; details: ointment 10 μg per gram, twice daily, four to six weeks
Description: Compositions containing 1α,24(S)-dihydroxy vitamin D2 are evaluated for therapeutic efficacy of the composition in the topical treatment of dermatitis (contact and ectopic). The composition evaluated is an ointment containing 10 μg of 1α,24-dihydroxy vitamin D2 per gram of ointment in a petrolatum-almond oil base. […] The patients are treated in an out-patient clinic. They are instructed to use the preparation two times a day.
The ointment is as far as possible applied to a single lesion, or to an area of the disease. The ointment and its container are weighed before the treatment starts and returned with any unused contents for reweighing at the end of the treatment.
The area of the lesion treated is estimated and recorded, and the lesion is photographed as required, together with suitable "control" lesions. The latter are preferably lesions of similar size and stage of development, either in the vicinity of the treated lesion or symmetrically contralateral. Relevant details of the photographic procedure are recorded so as to be reproduced when the lesions are next photographed (distance, aperture, angle, background, etc.). The ointment is applied twice daily and preferably left uncovered. The "control" lesions are left untreated, but if this is not possible, the treatment used on them is noted. […]

[3] = tested on: human cancer cell lines BCA-1 or ZR-75-1 (breast) and COL-1 (colon); assay: antiproliferative activity in human cancer cell lines (thymidine incorporation); format: cell-based; details: dose-response
Description: Dose-response studies are conducted with 1α,24(S)-(OH)2 D2 in a battery of human cancer cell lines. These cell lines include, but are not limited to, the following: BCA-1 or ZR-75-1 (breast) and COL-1 (colon), as described by Shieh, H. L. et al. Chem. Biol. Interact., vol. 81, pp. 35-55 (1982). In this study, appropriate solvents are used as negative controls.

[4] = biological target: T1, vitamin D serum binding protein (DBP) (Rattus norvegicus, UniProt P04276); assay: affinity for vitamin D serum binding protein in vitamin D deficient rat serum
T1 sequence (P04276 17-476): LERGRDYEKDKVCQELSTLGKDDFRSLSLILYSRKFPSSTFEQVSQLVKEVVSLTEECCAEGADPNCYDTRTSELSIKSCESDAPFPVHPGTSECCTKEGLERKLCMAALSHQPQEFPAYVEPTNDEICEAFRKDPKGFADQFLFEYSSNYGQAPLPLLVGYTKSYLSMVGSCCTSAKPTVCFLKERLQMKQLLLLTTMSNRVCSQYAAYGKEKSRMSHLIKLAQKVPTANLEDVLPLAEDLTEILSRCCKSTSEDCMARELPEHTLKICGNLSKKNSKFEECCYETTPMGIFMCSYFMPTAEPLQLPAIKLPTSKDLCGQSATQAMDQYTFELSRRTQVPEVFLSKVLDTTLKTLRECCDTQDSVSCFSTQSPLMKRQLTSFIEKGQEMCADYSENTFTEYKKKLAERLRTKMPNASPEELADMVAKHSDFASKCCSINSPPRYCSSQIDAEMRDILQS
From the text: In addition, the weak binding by the DBP was indicative of more rapid clearance, allowing for low toxicity.

[5] = biological target: T2, vitamin D receptor (VDR) (Homo sapiens, UniProt P11473); assay: vitamin D-dependent transcriptional activation: growth hormone production in transfected COS-1 cells; format: cell-based; details: transfected COS-1 cells
T2 construct: RXR partner endogenous (monkey)
T2 sequence (P11473 1-427): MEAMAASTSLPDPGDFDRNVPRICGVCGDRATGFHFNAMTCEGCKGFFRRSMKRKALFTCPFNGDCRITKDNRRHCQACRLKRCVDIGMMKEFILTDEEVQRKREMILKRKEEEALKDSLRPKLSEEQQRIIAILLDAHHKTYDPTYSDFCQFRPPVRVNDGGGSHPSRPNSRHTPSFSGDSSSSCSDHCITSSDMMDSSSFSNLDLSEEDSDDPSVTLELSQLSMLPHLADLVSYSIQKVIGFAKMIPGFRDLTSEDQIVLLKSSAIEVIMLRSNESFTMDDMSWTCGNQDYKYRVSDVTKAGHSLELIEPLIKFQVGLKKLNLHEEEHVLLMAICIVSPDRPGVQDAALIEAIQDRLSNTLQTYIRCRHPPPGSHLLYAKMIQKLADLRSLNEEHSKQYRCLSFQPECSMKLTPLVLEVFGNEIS
Description: The biological activity in vitro of chemically synthesized 1α,24(S)-(OH)2 D2 and 1α,24(R)-(OH)2 D2 was measured using a vitamin D-dependent transcriptional activation model system in which a vitamin D receptor (VDR)-expressing plasmid pSG5-hVDR1/3and a plasmid p(CT4)^4 TKGH containing a Growth Hormone (GH)-gene, under the control of a vitamin D-responsive element (VDRE) were co-transfected into Green monkey kidney, COS-1 cells. DNA's for these two vectors were supplied by Dr. Mark Haussler, Department of Biochemistry, University of Arizona, Tucson, Ariz.
Tranfected cells were incubated with vitamin D metabolites and growth hormone production was measured.

[6] = tested on: postmenopausal osteoporotic women; assay: dose ranging study in postmenopausal osteoporotic women; format: in vivo, human; details: oral 0.5 to 8.0 μg/day escalating over five weeks
Description: Twenty postmenopausal osteoporotic women are enrolled in an open label study.
On admission to the study, all patients receive instruction on selecting a daily diet containing 400 to 600 mg of calcium. Compliance to this diet is verified at weekly intervals by 24-hour food records and by interviews with each patient.
All patients complete a one-week baseline period, a five-week treatment period, and a one-week post-treatment observation period. During the treatment period, patients orally self-administer 1α,24(S)-dihydroxyvitamin D2 at an initial dose of 0.5 μg/day for the first week, and at successively higher doses of 1.0, 2.0, 4.0, and 8.0 μg/day in each of the following four weeks. All doses are administered before breakfast.
Blood and urine chemistries are monitored on a weekly basis throughout the study. Key blood chemistries include fasting serum levels of calcium, phosphorus, osteocalcin, creatinine, and blood urea nitrogen. Key urine chemistries include 24-hour excretion of calcium, phosphorus, and creatinine.

## C=C1/C(=C\C=C2/CCC[C@]3(C)[C@@H]([C@H](C)/C=C/[C@@](C)(O)C(C)C)CC[C@@H]23)C[C@@H](O)C[C@@H]1O [1α,24(S)-(OH)2 D2, 1α,24(S)-dihydroxy vitamin D2]
[1]; 24 to 36 months
  losses in total body calcium, radial or spinal bone densities relative to baseline: reduced losses in total body calcium, radial or spinal bone densities relative to baseline values
[1]; long-term administration
  monitored safety parameters: confirm the safety of long-term 1α,24(S)-dihydroxy vitamin D2 administration
[2]
  lesion severity score (erythema, scaling, thickness; 0 to 3): lower scores than the control lesions
[3]
  antiproliferative activity, inhibition of thymidine incorporation: potent (and reversible) antiproliferative activity
[4]
  binding affinity for the vitamin D serum binding protein: relatively poor binding affinity
  binding to the vitamin D serum binding protein relative to 1,25-(OH)2 D3: more weakly than does 1,25-(OH)2 D3
[5]
  activity in the transcriptional activation system compared with the 24(R) epimer: significantly more activity in this system than 1α,24(R)-(OH)2 D2
[6]
  24-hour urinary calcium levels: modest increases in 24-hour urinary calcium levels
  routinely monitored serum parameters: no effect on any routinely monitored serum parameters
  serum osteocalcin levels: increases in serum osteocalcin levels
  urinary excretion of hydroxyproline: nor does it increase urinary excretion of hydroxyproline
